Test results from US7855259B2, “Method for producing melt-processable fluororesin” (Asahi Glass Company, Limited, priority 2005, dated 2010).

Experiment: Measurement of 1-octanol/water partition coefficient (LogPOW) by HPLC, OECD Test Guideline 117
Assay type: physicochemical
Settings: for LogPOW: 1-octanol/water partition coefficient calculated from HPLC elution time, OECD Test Guideline 117, ODS column, acetonitrile/0.6 mass % HClO4 aq. 1/1, 40° C.; for bioaccumulation potential (indicated by LogPOW value as compared to APFO): judged from LogPOW compared to APFO
Experimental: In accordance with OECD Test Guideline 117, 1-octanol/water partition coefficient (LogPOW) of a fluorinated emulsifier was measured by using HPLC (high performance liquid chromatography).
Conditions for the measurement were as follows: column: TOSOH ODS-120T column (φ 4.6 mm×250 mm), eluent: acetonitrile/0.6 mass % of HClO4 aqueous solution=1/1 (vol/vol %), flow rate: […], sample amount: 300 μL, column temperature: 40° C., and detection light: UV 210 nm (WO2005-42593).
HPLC was carried out on standard substances (heptanoic acid, octanoic acid, nonanoic acid and decanoic acid) having known 1-octanol/water partition coefficients, and a calibration curve was prepared from the respective elution times and octanol/water partition coefficients of the respective standard substances. Based on this calibration curve, a value of partition coefficient (LogPOW) between 1-octanol and water was calculated from the elution time by HPLC of the fluorinated emulsifier.
Further, in general, in order to judge whether or not a chemical substance is apt to be accumulated in a living organism, a testing method for measurement of a partition coefficient (LogPOW) between 1-octanol and water, is stipulated. As the testing method, in addition to “Partition Coefficient (1-octanol/water) Shake Flask Method” as stipulated in OECD test guideline 107 and in Japanese Industrial Standards Z 7260-107 (2000), a HPLC method (high-performance liquid chromatography) as stipulated and published in OECD Test Guideline 117, is used. A compound having a large partition coefficient value has a large tendency for bioaccumulation, and a compound having a small value means a small tendency for bioaccumulation. In a case where the LogPOW value is less than 3.5, it is considered proper to judge that it is not a high-concentration, and bioaccumulation is also considered to be small.

Row | Compound | LogPOW | bioaccumulation potential (indicated by LogPOW value as compared to APFO)
1 | N.O=C(O)C(F)(OC(F)(F)C(F)(OC(F)(F)C(F)(F)F)C(F)(F)F)C(F)(F)F (centres unmarked) [CF3CF2OCF(CF3)CF2OCF(CF3)COONH4] | 4.03 | high
2 | N.O=C(O)C(F)(F)OC(F)(F)C(F)(F)OC(F)(F)C(F)(F)F [CF3CF2OCF2CF2OCF2COONH4] | 3.13 | low
3 | N.O=C(O)C(F)(F)C(F)(F)C(F)(F)C(F)(F)C(F)(F)C(F)(F)C(F)(F)F [CF3(CF2)6COONH4, ammonium perfluorooctanoate] | 3.67 | 
